Reference: patent US20260355191A1, “PAN-RAS INHIBITOR COMPOUND” (ADLAI NORTYE BIOPHARMA CO., LTD., priority 2024, published 2026)

Key:
AsPC-1 = assay: In vitro cell proliferation inhibition assay (CellTiter-Glo), AsPC-1; format: cell-based; conditions: AsPC-1, KRAS (p.G12D), 72 h; read-out: IC50, antiproliferative activity
Experimental: (§1) Due to the diversity of RAS mutations, and in order to evaluate the activity of the compounds in different RAS mutant cell lines, we selected cell lines with KRAS^G12D, KRAS^G12V, KRAS^G12c, NRAS^q61L, KRAS^G13D, KRAS^G12R, and KRAS^WT mutations (see the table below for in vitro activity evaluation and screening of the compounds.
(§2) According to the doubling time of different cell lines, different numbers of cells (1000-5000 cells/well) were seeded into 96-well plates containing 180 μL of the corresponding culture medium, and incubated overnight in a cell incubator at 37 °C with 5% C02. On the following day, the test compounds were pre-diluted in the culture medium in a 3-fold serial dilution series, with the highest concentration being […], resulting in 10 concentration gradients in total. Subsequently, 20 μL of culture medium containing the compounds at different concentrations was added to the cells in the 96-well plates, ensuring a final compound concentration of up to 10 μM, with 10 concentrations in 3-fold dilution. After co-incubation of the cells with the compounds for 72 h, the 96-well plates were removed from the incubator and equilibrated at room temperature for 30 min. Then, 25 μL of CellTiter-Glo® Reagent was added to each well and mixed thoroughly, followed by incubation at room temperature for 10 min. Subsequently, 100 μL of the samples was transferred to white 96-well plates (OptiPlate™-96, PerkinElmer), and […] signal values were read using a multifunctional microplate reader (SpectraMax i3x, Molecular Devices). The signal values were then normalized, and curve fitting was performed using a four-parameter logistic regression equation to calculate the half maximal inhibitory concentration (IC50) of the compounds against the cell lines.

SW480 = assay: In vitro cell proliferation inhibition assay (CellTiter-Glo), SW480; format: cell-based; conditions: SW480, KRAS (p.G12V), 72 h; read-out: IC50, antiproliferative activity
Experimental: as §1, §2

H358 = assay: In vitro cell proliferation inhibition assay (CellTiter-Glo), H358; format: cell-based; conditions: H358, KRAS (p.G12C), 72 h; read-out: IC50, antiproliferative activity
Experimental: as §1, §2

HepG2 = assay: In vitro cell proliferation inhibition assay (CellTiter-Glo), HepG2; format: cell-based; conditions: HepG2, NRAS (p.Q61L), 72 h; read-out: IC50, antiproliferative activity
Experimental: as §1, §2

HCT116 = assay: In vitro cell proliferation inhibition assay (CellTiter-Glo), HCT116; format: cell-based; conditions: HCT116, KRAS (p.G13D), 72 h; read-out: IC50, antiproliferative activity
Experimental: as §1, §2

PSN1 = assay: In vitro cell proliferation inhibition assay (CellTiter-Glo), PSN1; format: cell-based; conditions: PSN1, KRAS (p.G12R), 72 h; read-out: IC50, antiproliferative activity
Experimental: as §1, §2

MV411 = assay: In vitro cell proliferation inhibition assay (CellTiter-Glo), MV411; format: cell-based; conditions: MV411, KRAS wild type, 72 h; read-out: IC50, antiproliferative activity
Experimental: as §2

[1] = Pharmacokinetic study in mice; format: in vivo; conditions: mouse, male CD-1 mice; for bioavailability: blood; for bioavailability / AUC / Cmax: po, p.o. 2 mpk; for bioavailability / Vd / clearance: i.v. 1 mpk; for Vd / clearance: iv, 1 mg/kg; for Vd / clearance / AUC / Cmax: whole blood; for AUC / Cmax: 2 mg/kg
Experimental: To evaluate the pharmacokinetic behavior of the compounds of the disclosure in male CD-1 mice, the test compounds were dissolved in a solvent (5% DMSO/10% solutol/85% water). Twelve male CD-1 mice were divided into two groups, with six animals in each group. Group 1 received a single intravenous bolus (i.v.) administration of the compound, and Group 2 received a single oral (p.o.) administration of the compound. Whole blood samples were collected at 0.083 h (intravenous group only), 0.25, 0.5, 1, 2, 4, 8, and 24 hours after dosing. The concentration of the test compound in whole blood samples was determined using the LC-MS/MS method.

Structure (SMILES) | IC50 (AsPC-1) [nM] | IC50 (SW480) [nM] | IC50 (H358) [nM] | IC50 (HepG2) [nM] | IC50 (HCT116) [nM] | IC50 (PSN1) [nM] | IC50 (MV411) [nM] | bioavailability [1] [%] | Vd [1] [L/kg] | clearance [1] [mL/min/kg] | AUC [1] [ng·h/mL] | Cmax [1] [ng/mL]
CCn1c(-c2cc(-c3nnc(C4CCN(C5COC5)CC4)o3)cnc2[C@H](C)OC)c2c3cc(ccc31)-c1csc(n1)C[C@H](NC(=O)[C@H]1C[C@@H]1C)C(=O)N1CCC[C@H](N1)C(=O)OCC(C)(C)C2 (atropisomer, axis not shown) [Compound 1, (1S,2S)—N-((6^3S,4S,Z)-1^1-ethyl-1^2-(2-((S)-1-methoxyethyl)-5-(5-(1-(oxetan-3-yl)piperidin-4-yl)-1,3,4-oxadiazol-2-yl)pyridin-3-yl)-10,10-dimethyl-5,7-dioxo-6^1,6^2,6^3,6^4,6^5,6^6-hexahydro-1^1H-8-oxa-2(4,2)-thiazola-1(5,3)-indola-6(1,3)-pyridazinacycloundecaphane-4-yl)-2-methylcyclopropane-1-carboxamide] | 0.05 | 0.07 | 0.06 | 5 | ~10 | 5.1 | 1.7 | – | – | – | – | –
CCn1c(-c2cc(-c3nnc(C4CCN(C5COC5)CC4)o3)cnc2[C@H](C)OC)c2c3cc(ccc31)-c1csc(n1)C[C@H](NC(=O)[C@H]1[C@H](C)[C@@H]1C)C(=O)N1CCC[C@H](N1)C(=O)OCC(C)(C)C2 (atropisomer, axis not shown) [Compound 2, (1r,2R,3S)—N-((6^3S,4S,Z)-1^1-ethyl-1^2-(2-((S)-1-methoxyethyl)-5-(5-(1-(oxetan-3-yl)piperidin-4-yl)-1,3,4-oxadiazol-2-yl)pyridin-3-yl)-10,10-dimethyl-5,7-dioxo-6^1,6^2,6^3,6^4,6^5,6^6-hexahydro-1^1H-8-oxa-2(4,2)-thiazola-1(5,3)-indola-6(1,3)-pyridazinacycloundecaphane-4-yl)-2,3-dimethylcyclopropane-1-carboxamide] | 0.06 | 0.09 | 0.002 | 0.01 | 0.07 | 0.01 | 0.16 | 24.5 | 1.95 | 4.6 | 1790 | 167
CCn1c(-c2cc(-c3nnc([C@H]4CCCN(C5COC5)C4)o3)cnc2[C@H](C)OC)c2c3cc(ccc31)-c1csc(n1)C[C@H](NC(=O)[C@H]1C[C@@H]1C)C(=O)N1CCC[C@H](N1)C(=O)OCC(C)(C)C2 (atropisomer, axis not shown) [Compound 18, (1S,2S)—N-((6^3S,4S,Z)-1^1-ethyl-1^2-(2-((S)-1-methoxyethyl)-5-(5-((S)-1-(oxetan-3-yl)piperidin-3-yl)-1,3,4-oxadiazol-2-yl)pyridin-3-yl)-10,10-dimethyl-5,7-dioxo-6^1,6^2,6^3,6^4,6^5,6^6-hexahydro-1^1H-8-oxa-2(4,2)-thiazola-1(5,3)-indola-6(1,3)-pyridazinacycloundecaphane-4-yl)-2-methylcyclopropane-1-carboxamide] | 0.03 | 0.13 | 0.39 | 1.6 | 23 | 5.3 | 13 | – | – | – | – | –
CCn1c(-c2cc(-c3nc(C4CCN(C5COC5)CC4)n(C4COC4)n3)cnc2[C@H](C)OC)c2c3cc(ccc31)-c1csc(n1)C[C@H](NC(=O)[C@H]1C[C@@H]1C)C(=O)N1CCC[C@H](N1)C(=O)OCC(C)(C)C2 (atropisomer, axis not shown) [Compound 26, (1S,2S)—N-((6^3S,4S,Z)-1^1-ethyl-1^2-(2-((S)-1-methoxyethyl)-5-(1-(oxetan-3-yl)-5-(1-(oxetan-3-yl)piperidin-4-yl)-1H-1,2,4-triazol-3-yl)pyridin-3-yl)-10,10-dimethyl-5,7-dioxo-6^1,6^2,6^3,6^4,6^5,6^6-hexahydro-1^1H-8-oxa-2(4,2)-thiazola-1(5,3)-indola-6(1,3)-pyridazinacycloundecaphane-4-yl)-2-methylcyclopropane-1-carboxamide] | 0.25 | 0.54 | 0.01 | 0.25 | 3.2 | 0.08 | 0.64 | – | – | – | – | –
CCn1c(-c2cc(-c3nc(C4CCN(C5COC5)CC4)n(CCN(C)C)n3)cnc2[C@H](C)OC)c2c3cc(ccc31)-c1csc(n1)C[C@H](NC(=O)[C@H]1C[C@@H]1C)C(=O)N1CCC[C@H](N1)C(=O)OCC(C)(C)C2 (atropisomer, axis not shown) [Compound 27, (1S,2S)—N-((6^3S,4S,Z)-1^2-(5-(1-(2-(dimethylamino)ethyl)-5-(1-(oxetan-3-yl)piperidin-4-yl)-1H-1,2,4-triazol-3-yl)-2-((S)-1-methoxyethyl)pyridin-3-yl)-1^1-ethyl-10,10-dimethyl-5,7-dioxo-6^1,6^2,6^3,6^4,6^5,6^6-hexahydro-1^1H-8-oxa-2(4,2)-thiazola-1(5,3)-indola-6(1,3)-pyridazinacycloundecaphane-4-yl)-2-methylcyclopropane-1-carboxamide] | 0.37 | 0.87 | 0.17 | 0.05 | 11 | 0.16 | 1.1 | – | – | – | – | –
CO[C@@H](C)c1ncc(-c2nnc(C3CCN(C4COC4)CC3)o2)cc1-c1c2c3cc(ccc3n1CC(F)(F)F)-c1csc(n1)C[C@H](NC(=O)C1C[C@@H]1C)C(=O)N1N[C@H](C(=O)OCC(C)(C)C2)C2CC1C2 (stereo partly drawn) [Compound 9] | 0.09 | 0.06 | 0.041 | 0.16 | 0.23 | 0.01 | 0.76 | 63.3 | 2.87 | 3.7 | 5740 | 248
CO[C@@H](C)c1ncc(-c2nnc(C3CCN(C4COC4)C[C@@H]3C)o2)cc1-c1c2c3cc(ccc3n1CC(F)(F)F)-c1csc(n1)C[C@H](NC(=O)[C@H]1[C@H](C)[C@@H]1C)C(=O)N1N[C@H](C(=O)OCC(C)(C)C2)C2CC1C2 (stereo partly drawn) [Compound 38] | 0.01 | 0.04 | 0.04 | 0.11 | 0.02 | 0.01 | 0.45 | – | – | – | – | –
CO[C@@H](C)c1ncc(-c2noc(C3CCN(C4COC4)CC3)n2)cc1-c1c2c3cc(ccc3n1CC(F)(F)F)-c1csc(n1)C[C@H](NC(=O)[C@H]1[C@H](C)[C@@H]1C)C(=O)N1N[C@H](C(=O)OCC(C)(C)C2)C2CC1C2 [Example 42] | 0.01 | 0.02 | 0.03 | 0.01 | 0.03 | 0.01 | 0.56 | – | – | – | – | –
CO[C@@H](C)c1ncc(-c2nnc(C3CCN(C4CCN(C)CC4)CC3)o2)cc1-c1c2c3cc(ccc3n1CC(F)(F)F)-c1csc(n1)C[C@H](NC(=O)[C@H]1[C@@H]3COC[C@@H]31)C(=O)N1N[C@H](C(=O)OCC(C)(C)C2)C2CC1C2 [Example 45] | 0.06 | 0.37 | 0.01 | 0.022 | 1.1 | 0.04 | 0.42 | – | – | – | – | –
CO[C@@H](C)c1ncc(-c2nnc(C3CCN(C4COC4)C3)o2)cc1-c1c2c3cc(ccc3n1CC(F)(F)F)-c1csc(n1)C[C@H](NC(=O)[C@H]1[C@H](C)[C@@H]1C)C(=O)N1N[C@H](C(=O)OCC(C)(C)C2)C2CC1C2 (stereo partly drawn) [Example 46] | 0.05 | 0.06 | 0.01 | 0.05 | 0.58 | 0.09 | 1 | – | – | – | – | –
CCn1c(-c2cc(N3CCN(C)CC3)cnc2[C@H](C)OC)c2c3cc(ccc31)-c1csc(n1)C[C@H](NC(=O)[C@H]1C[C@@H]1C)C(=O)N1CCC[C@H](N1)C(=O)OCC(C)(C)C2 [RMC-6236] | 1.2 | 1.5 | 0.08 | 2.8 | 2.6 | 2 | 4.2 | – | – | – | – | –
